Assay [1] deals with T1, PRMT5 (Homo sapiens, UniProt O14744).
T1 construct: purchased Viva (custom protein)
As to the kind of experiment: PRMT5 IC50 assay with no cofactor. In kind it is biochemical. In a few lines:
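For the SAM-containing format, dividing IC50 by 1.5 yields Ki; for the MTA-containing format the divisor is 13.5. A third format without cofactor gives IC50 alone.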

Assay [2] has as its target T1, PRMT5. In words: PRMT5 IC50 assay in the presence of SAM as cofactor. In kind it is biochemical. Put shortly:
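Three cofactor conditions tested for PRMT5 inhibition: none, MTA and SAM, each giving an IC50. For conversion to Ki, the MTA-condition IC50 is divided by 13.5 and the SAM-condition IC50 by 1.5, and the two Ki values are expressed as a SAM/MTA ratio.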

Assay [3] addresses T1, PRMT5. As to the kind of experiment: PRMT5 IC50 assay in the presence of MTA as cofactor. In kind it is biochemical. The note with it: for IC50: PRMT5, MTA as cofactor. Put shortly:
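Potency against PRMT5 is compared across cofactor states, where IC50 equals Ki×1.5 with SAM present and Ki×13.5 with MTA present.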

In a further assay the test system is HAP1 MTAP-deleted. As to the kind of experiment: SDMA in-cell western assay, HAP1 MTAP-deleted cell line. In kind it is cell-based. The settings on record: for IC50: Homo sapiens, HAP1 MTAP-deleted cell line; for MTAP Intact/Deleted Ratio: IC50 ratio HAP1 MTAP-intact / HAP1 MTAP-deleted. In a few lines:
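These are IC50 values from an in-cell western measuring SDMA. The HAP1 cells used carry no MTAP, in contrast to the isogenic partner line with endogenous MTAP expression.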

A further assay has as its system HAP1 MTAP-intact. In words: SDMA in-cell western assay, HAP1 MTAP-intact cell line. In kind it is cell-based. The note with it: Homo sapiens. In a few lines:
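Potency reflects cellular SDMA reduction, detected by in-cell western, in HAP1 cells with or without MTAP (endogenous expression versus null).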

Where [4] appears, read: ratio between Ki in the presence of SAM and Ki in the presence of MTA.
Setting [5] is: ratio between the Ki in the presence of SAM and the Ki in the presence of MTA.

SMILES strings stand for the structures. A value given as a limit tells only on which side of the number the result lay.

T1 sequence (O14744 whole entry): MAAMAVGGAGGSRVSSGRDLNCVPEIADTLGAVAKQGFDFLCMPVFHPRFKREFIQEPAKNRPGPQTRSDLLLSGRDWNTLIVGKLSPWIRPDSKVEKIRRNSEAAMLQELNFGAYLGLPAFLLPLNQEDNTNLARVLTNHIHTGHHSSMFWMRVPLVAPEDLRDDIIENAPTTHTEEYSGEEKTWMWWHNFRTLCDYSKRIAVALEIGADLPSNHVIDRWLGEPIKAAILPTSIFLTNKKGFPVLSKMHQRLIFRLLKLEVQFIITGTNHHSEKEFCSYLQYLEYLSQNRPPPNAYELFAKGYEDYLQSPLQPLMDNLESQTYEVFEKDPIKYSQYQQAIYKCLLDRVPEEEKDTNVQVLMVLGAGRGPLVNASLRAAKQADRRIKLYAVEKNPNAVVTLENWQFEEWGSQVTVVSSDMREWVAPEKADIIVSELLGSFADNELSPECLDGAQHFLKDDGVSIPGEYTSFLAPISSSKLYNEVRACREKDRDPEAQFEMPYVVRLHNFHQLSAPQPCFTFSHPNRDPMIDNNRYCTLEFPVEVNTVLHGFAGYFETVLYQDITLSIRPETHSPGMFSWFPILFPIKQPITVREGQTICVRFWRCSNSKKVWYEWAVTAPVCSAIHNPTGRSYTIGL
T1 sequence (Q9BQA1 whole entry partner): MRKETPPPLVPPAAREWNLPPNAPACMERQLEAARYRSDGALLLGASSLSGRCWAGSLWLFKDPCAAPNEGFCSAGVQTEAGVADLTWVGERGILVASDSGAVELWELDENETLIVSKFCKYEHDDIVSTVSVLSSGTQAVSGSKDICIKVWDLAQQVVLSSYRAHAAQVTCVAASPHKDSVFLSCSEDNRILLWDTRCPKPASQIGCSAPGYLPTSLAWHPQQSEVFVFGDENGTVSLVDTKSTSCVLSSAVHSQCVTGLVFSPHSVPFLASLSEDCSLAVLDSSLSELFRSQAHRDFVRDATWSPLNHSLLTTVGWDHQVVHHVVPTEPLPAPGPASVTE

Usually IC50 stands for the concentration that gives 50% inhibition. Consider `Cc1cc(OCc2cnco2)cc2c1CN(C[C@@H](O)CNC(=O)c1ccnc(NC3CCC3)c1)CC2` [Compound 260, 2-(cyclobutylamino)-N-[(2S)-2-hydroxy-3-[8-methyl-6-(oxazol-5-ylmethoxy)-3,4-dihydro-1H-isoquinolin-2-yl]propyl]pyridine-4-carboxamide], for which the IC50 is no less than 5000 nM at PRMT5 [1] (read-out: No Co-factor IC50); 500 to 5000 nM at PRMT5 [2]; 500 to 5000 nM at PRMT5 [3]; 1000 to 10000 nM with HAP1 MTAP-deleted; 1000 to 10000 nM in the assay with HAP1 MTAP-intact. Besides, the “SAM/MTA Ratio” value on PRMT5 [3] (setting [4]) is “A (a Ki ratio greater than or equal to 10 fold between the Ki in the presence of SAM and the Ki in the presence of MTA)”. In the assay with HAP1 MTAP-deleted, the “MTAP Intact/Deleted Ratio” value is “C* (an IC50 ratio of less than 3 fold between the IC50 in the HAP1 MTAP-intact cell line and the HAP1 MTAP-deleted cell line)”.
On to `CCN(C)c1cc(C(=O)NC[C@H](O)CN2CCc3c(ccc(OCc4ocnc4C)c3C)C2)cc(NC2CCC2)n1` [Compound 478, 2-(cyclobutylamino)-6-[ethyl(methyl)amino]-N-[(2S)-2-hydroxy-3-{5-methyl-6-[(4-methyl-1,3-oxazol-5-yl)methoxy]-1,2,3,4-tetrahydroisoquinolin-2-yl}propyl]pyridine-4-carboxamide], for which the IC50 was no less than 5000 nM at PRMT5 [1]; 500 to 5000 nM on PRMT5 [2]; 50 to 500 nM at PRMT5 [3]; no less than 10000 nM in the assay with HAP1 MTAP-deleted; no less than 10000 nM in the assay with HAP1 MTAP-intact. Besides, the “SAM/MTA Ratio” value at PRMT5 [3] (setting [5]) was “A (a Ki ratio greater than or equal to 10 fold between the Ki in the presence of SAM and the Ki in the presence of MTA)”. Besides, in the assay with HAP1 MTAP-deleted, the “MTAP Intact/Deleted Ratio” value was “C* (an IC50 ratio of less than 3 fold between the IC50 in the HAP1 MTAP-intact cell line and the HAP1 MTAP-deleted cell line)”.
For `CCCN(C)c1nc(NC2COC2)cc(C(=O)NC[C@H](O)CN2CCc3cc(OCc4cnco4)ccc3C2)n1` [Compound 294, (S)—N-(2-hydroxy-3-(6-(oxazol-5-ylmethoxy)-3,4-dihydroisoquinolin-2(1H)-yl)propyl)-2-(methyl(propyl)amino)-6-(oxetan-3-ylamino)pyrimidine-4-carboxamide], the IC50 at PRMT5 [1] (read-out: No Co-factor IC50) was 500 to 5000 nM; on PRMT5 [2] it was 50 to 500 nM; on PRMT5 [3], 50 to 500 nM; with HAP1 MTAP-deleted it was less than 1000 nM; in the assay with HAP1 MTAP-intact, 1000 to 10000 nM. Moreover, the “SAM/MTA Ratio” value at PRMT5 [3] (setting [4]) is “A (a Ki ratio greater than or equal to 10 fold between the Ki in the presence of SAM and the Ki in the presence of MTA)”. Besides, the “MTAP Intact/Deleted Ratio” value with HAP1 MTAP-deleted is “C* (an IC50 ratio of less than 3 fold between the IC50 in the HAP1 MTAP-intact cell line and the HAP1 MTAP-deleted cell line)”.
For `CC(C)C(=O)N1CC(Nc2cc(C(=O)NC[C@H](O)CN3CCc4cc(OCc5cnco5)ccc4C3)ccn2)C1` [Compound 479, N-[(2S)-2-hydroxy-3-[6-(oxazol-5-ylmethoxy)-3,4-dihydro-1H-isoquinolin-2-yl]propyl]-2-[[1-(2-methylpropanoyl)azetidin-3-yl]amino]pyridine-4-carboxamide], the IC50 on PRMT5 [1] is no less than 5000 nM; at PRMT5 [2], 500 to 5000 nM; at PRMT5 [3], 50 to 500 nM; with HAP1 MTAP-deleted, 1000 to 10000 nM; in the assay on HAP1 MTAP-intact it was 1000 to 10000 nM. The “SAM/MTA Ratio” value on PRMT5 [3] (setting [5]) was “A (a Ki ratio greater than or equal to 10 fold between the Ki in the presence of SAM and the Ki in the presence of MTA)”. Moreover, the “MTAP Intact/Deleted Ratio” value in the assay with HAP1 MTAP-deleted was “C* (an IC50 ratio of less than 3 fold between the IC50 in the HAP1 MTAP-intact cell line and the HAP1 MTAP-deleted cell line)”.
With `Cc1c(OCc2cnco2)ccc2c1CCN(C[C@@H](O)CNC(=O)c1ccnc(NC3CCN(C(=O)C4CC4)CC3)c1)C2` [Compound 484, (S)-2-((1-(cyclopropanecarbonyl)piperidin-4-yl)amino)-N-(2-hydroxy-3-(5-methyl-6-(oxazol-5-ylmethoxy)-3N-dihydroisoquinolin-2(1H)-yl)propyl)isonicotinamide], the IC50 against PRMT5 [1] was 500 to 5000 nM; on PRMT5 [2], 50 to 500 nM; on PRMT5 [3], 50 to 500 nM; in the assay on HAP1 MTAP-deleted, 1000 to 10000 nM; in the assay on HAP1 MTAP-intact it was no less than 10000 nM. Also, the “SAM/MTA Ratio” value on PRMT5 [3] (setting [5]) is “A (a Ki ratio greater than or equal to 10 fold between the Ki in the presence of SAM and the Ki in the presence of MTA)”. Besides, in the assay with HAP1 MTAP-deleted, the “MTAP Intact/Deleted Ratio” value is “B* (an IC50 ratio greater than or equal to 3 fold but lower than 10 fold between the IC50 in the HAP1 MTAP-intact cell line and the HAP1 MTAP-deleted cell line)”.
For `O=C(NC[C@H](O)CN1CCc2cc(OCc3cnco3)ccc2C1)c1ccnc(NC2CCCC2)c1` [Compound 407, (S)-2-(cxclopentylamino)-N-(2-hydroxy-3-(6-(oxazol-5-ylmethoxy)-3N-dihydroisoquinolin-2(1H)-yl)propyl)isonicotinamide], the IC50 on PRMT5 [1] (read-out: No Co-factor IC50) is no less than 5000 nM; at PRMT5 [2], 50 to 500 nM; on PRMT5 [3] it was 50 to 500 nM; in the assay on HAP1 MTAP-deleted, less than 1000 nM; in the assay with HAP1 MTAP-intact, less than 1000 nM. Moreover, the “SAM/MTA Ratio” value at PRMT5 [3] (setting [4]) was “A (a Ki ratio greater than or equal to 10 fold between the Ki in the presence of SAM and the Ki in the presence of MTA)”. Moreover, in the assay with HAP1 MTAP-deleted, the “MTAP Intact/Deleted Ratio” value is “B* (an IC50 ratio greater than or equal to 3 fold but lower than 10 fold between the IC50 in the HAP1 MTAP-intact cell line and the HAP1 MTAP-deleted cell line)”.
Consider `CC(C)(C)N1CCN(c2nc(NC3COC3)cc(C(=O)NC[C@H](O)CN3CCc4cc(OCc5cnco5)ccc4C3)n2)CC1` [Compound 373], for which the IC50 at PRMT5 [1] (read-out: No Co-factor IC50) is 500 to 5000 nM; at PRMT5 [2], 50 to 500 nM; at PRMT5 [3], 50 to 500 nM; in the assay on HAP1 MTAP-deleted it was 1000 to 10000 nM; in the assay on HAP1 MTAP-intact it was no less than 10000 nM. Also, the “SAM/MTA Ratio” value on PRMT5 [3] (setting [4]) was “A (a Ki ratio greater than or equal to 10 fold between the Ki in the presence of SAM and the Ki in the presence of MTA)”. In addition, the “MTAP Intact/Deleted Ratio” value with HAP1 MTAP-deleted was “B* (an IC50 ratio greater than or equal to 3 fold but lower than 10 fold between the IC50 in the HAP1 MTAP-intact cell line and the HAP1 MTAP-deleted cell line)”.
For the molecule `Cc1ncoc1COc1ccc2c(c1Cl)CCN(C[C@@H](O)CNC(=O)c1ccnc(NC3CCC3)c1)C2` [Compound 252, (S)—N-(3-(5-chloro-6-((4-methyloxazol-5-yl)methoxy)-3,4-dihydroisoquinolin-2(1H)-yl)-2-hydroxypropyl)-2-(cyclobutylamino)isonicotinamide], the IC50 on PRMT5 [1] (read-out: No Co-factor IC50) is no less than 5000 nM; at PRMT5 [2], 50 to 500 nM; at PRMT5 [3], 50 to 500 nM; in the assay with HAP1 MTAP-deleted, 1000 to 10000 nM; in the assay on HAP1 MTAP-intact it was no less than 10000 nM. At PRMT5 [3] (setting [4]), the “SAM/MTA Ratio” value is “A (a Ki ratio greater than or equal to 10 fold between the Ki in the presence of SAM and the Ki in the presence of MTA)”. In addition, the “MTAP Intact/Deleted Ratio” value with HAP1 MTAP-deleted was “C* (an IC50 ratio of less than 3 fold between the IC50 in the HAP1 MTAP-intact cell line and the HAP1 MTAP-deleted cell line)”.
Regarding `CCC(=O)N1CCN(c2cc(C(=O)NC[C@H](O)CN3CCc4c(ccc(OCc5cnco5)c4Cl)C3)cc(NC3CCC3)n2)CC1` [Compound 570, (S)—N-(3-(5-chloro-6-(oxazol-5-ylmethoxy)-3N-dihydroisoquinolin-2(1H)-yl)-2-hydroxypropyl)-2-(cyclobutylamino)-6-(4-propionylpiperazin-1-yl)isonicotinamide], the IC50 is 500 to 5000 nM against PRMT5 [1]; 50 to 500 nM at PRMT5 [2]; 50 to 500 nM at PRMT5 [3]; less than 1000 nM with HAP1 MTAP-deleted; no less than 10000 nM in the assay with HAP1 MTAP-intact. In addition, the “SAM/MTA Ratio” value on PRMT5 [3] (setting [5]) is “A (a Ki ratio greater than or equal to 10 fold between the Ki in the presence of SAM and the Ki in the presence of MTA)”. Also, in the assay on HAP1 MTAP-deleted, the “MTAP Intact/Deleted Ratio” value is “A* (an IC50 ratio greater than or equal to 10 fold between the IC50 in the HAP1 MTAP-intact cell line and the HAP1 MTAP-deleted cell line)”.
As to `CC(C)(C)C(=O)N1CCC(Nc2cc(C(=O)NC[C@H](O)CN3CCc4cc(OCc5cnco5)ccc4C3)ccn2)CC1` [Compound 449, 2-[[1-(2,2-dimethylpropanoyl)-4-piperidyl]amino]-N-[(2S)-2-hydroxy-3-[6-(oxazol-5-ylmethoxy)-3,4-dihydro-1H-isoquinolin-2-yl]propyl]pyridine-4-carboxamide], the IC50 is 500 to 5000 nM on PRMT5 [1]; 50 to 500 nM at PRMT5 [2]; 50 to 500 nM at PRMT5 [3]; less than 1000 nM in the assay with HAP1 MTAP-deleted; 1000 to 10000 nM in the assay on HAP1 MTAP-intact. In addition, the “SAM/MTA Ratio” value at PRMT5 [3] (setting [5]) was “A (a Ki ratio greater than or equal to 10 fold between the Ki in the presence of SAM and the Ki in the presence of MTA)”. The “MTAP Intact/Deleted Ratio” value with HAP1 MTAP-deleted was “C* (an IC50 ratio of less than 3 fold between the IC50 in the HAP1 MTAP-intact cell line and the HAP1 MTAP-deleted cell line)”.
Take `CC(=O)N1CCC(Nc2cc(C(=O)NC[C@H](O)CN3CCc4c(ccc(OCc5ocnc5C)c4C)C3)cc(N3CCN(C)CC3)n2)CC1` [Compound 593]: the IC50 on PRMT5 [1] is 500 to 5000 nM; on PRMT5 [2], 50 to 500 nM; on PRMT5 [3] it was 50 to 500 nM; in the assay on HAP1 MTAP-deleted, 1000 to 10000 nM; with HAP1 MTAP-intact, no less than 10000 nM. Further, the “SAM/MTA Ratio” value at PRMT5 [3] (setting [5]) is “A (a Ki ratio greater than or equal to 10 fold between the Ki in the presence of SAM and the Ki in the presence of MTA)”. The “MTAP Intact/Deleted Ratio” value in the assay with HAP1 MTAP-deleted was “B* (an IC50 ratio greater than or equal to 3 fold but lower than 10 fold between the IC50 in the HAP1 MTAP-intact cell line and the HAP1 MTAP-deleted cell line)”.

Values taken from patent publication US11986471B2, “Compounds and methods of use” (Tango Therapeutics, Inc., priority 2018, dated 2024).
